Where two headings read alike, the source gives them in different places.
Molecular target: human NaV 1.8 (Homo sapiens, UniProt Q9Y5Y9)
Experiment: E-VIPR assay detecting and measuring NaV inhibition properties
Format: cell-based
Settings: HEK cells expressing truncated human NaV 1.8
Procedure, shortened: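 HEK cells expressing truncated, fully active human NaV1.8, with KIR2.1 BacMam co-transduction, were loaded with CC2-DMPE/DiSBAC6(3) voltage-sensing dyes for 20 min at room temperature. Compounds were tested in 11-point 3-fold dilutions (300 nM top final), optionally with 25% human serum, under electrical stimulation with FRET read-out.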

[1] = no human serum, read-out: IC50 in the E-VIPR Assay
[2] = in the presence of human serum (compound numbers followed by *), read-out: IC50 in the E-VIPR Assay, performed in the presence of human serum

human NaV 1.8, sequence (Q9Y5Y9 126-399 limits assumed): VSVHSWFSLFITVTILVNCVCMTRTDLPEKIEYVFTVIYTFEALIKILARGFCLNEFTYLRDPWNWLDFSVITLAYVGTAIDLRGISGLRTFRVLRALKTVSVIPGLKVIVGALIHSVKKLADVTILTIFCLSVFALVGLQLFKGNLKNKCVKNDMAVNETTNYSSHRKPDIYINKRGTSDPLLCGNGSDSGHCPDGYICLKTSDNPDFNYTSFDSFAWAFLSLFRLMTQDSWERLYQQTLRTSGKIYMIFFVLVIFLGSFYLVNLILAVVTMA
human NaV 1.8, sequence (Q9Y5Y9 660-890 limits assumed): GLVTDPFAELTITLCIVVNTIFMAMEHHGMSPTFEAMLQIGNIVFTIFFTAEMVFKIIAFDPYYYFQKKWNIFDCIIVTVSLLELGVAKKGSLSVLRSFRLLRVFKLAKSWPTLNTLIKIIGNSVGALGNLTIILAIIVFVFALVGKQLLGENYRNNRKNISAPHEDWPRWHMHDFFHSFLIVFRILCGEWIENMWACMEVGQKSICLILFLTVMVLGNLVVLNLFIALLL
human NaV 1.8, sequence (Q9Y5Y9 1148-1722 limits assumed): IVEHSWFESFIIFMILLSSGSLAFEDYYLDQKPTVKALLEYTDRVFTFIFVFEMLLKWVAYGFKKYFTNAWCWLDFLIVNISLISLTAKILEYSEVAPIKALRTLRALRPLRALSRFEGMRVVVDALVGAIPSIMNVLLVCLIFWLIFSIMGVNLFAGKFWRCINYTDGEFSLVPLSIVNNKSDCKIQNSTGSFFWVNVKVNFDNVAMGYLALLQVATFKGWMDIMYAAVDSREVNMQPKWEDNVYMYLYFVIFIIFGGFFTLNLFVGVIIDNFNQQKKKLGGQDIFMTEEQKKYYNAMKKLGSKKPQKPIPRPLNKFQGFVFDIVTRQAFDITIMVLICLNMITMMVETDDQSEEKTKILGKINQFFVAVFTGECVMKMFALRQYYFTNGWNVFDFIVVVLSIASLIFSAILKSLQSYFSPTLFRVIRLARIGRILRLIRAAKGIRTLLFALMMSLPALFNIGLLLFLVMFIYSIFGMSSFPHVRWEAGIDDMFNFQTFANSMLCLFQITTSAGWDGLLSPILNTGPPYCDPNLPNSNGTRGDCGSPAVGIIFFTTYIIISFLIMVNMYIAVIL

| Structure (SMILES) | IC50 [1] | IC50 [2] |
| --- | --- | --- |
| COc1c([C@H]2[C@H](C(=O)NC3CCCN(C(C)=O)C3)O[C@@](C)(C(F)(F)F)[C@H]2C)ccc(F)c1F (stereo partly drawn) [Compound 274, (2R,3S,4S,5R)-N-(1-acetylpiperidin-3-yl)-3-(3,4-difluoro-2-methoxyphenyl)-4,5-dimethyl-5-(trifluoromethyl)tetrahydrofuran-2-carboxamide] | ≥ 1000 nM | – |
| COc1c([C@H]2[C@H](C(=O)Nc3ccn4c(=O)n(CCO)nc4c3)O[C@@](C)(C(F)(F)F)[C@H]2C)ccc(F)c1F [Compound 430, (2R,3S,4S,5R)-3-(3,4-difluoro-2-methoxy-phenyl)-N-[2-(2-hydroxyethyl)-3-oxo-[1,2,4]triazolo[4,3-a]pyridin-7-yl]-4,5-dimethyl-5-(trifluoromethyl)tetrahydrofuran-2-carboxamide] | 10 to 100 nM | – |
| COc1c([C@H]2[C@H](C(=O)Nc3cc(C[C@H](O)CO)n(C)n3)O[C@@](C)(C(F)(F)F)[C@H]2C)ccc(F)c1F [Compound 5, (2R,3S,4S,5R)-3-(3,4-difluoro-2-methoxyphenyl)-N-(5-((S)-2,3-dihydroxypropyl)-1-methyl-1H-pyrazol-3-yl)-4,5-dimethyl-5-(trifluoromethyl)tetrahydrofuran-2-carboxamide] | 10 to 100 nM | – |
| COc1c([C@H]2[C@H](C(=O)Nc3c[nH]nn3)O[C@@](C)(C(F)(F)F)[C@H]2C)ccc(F)c1F [Compound 372, (2R,3S,4S,5R)-3-(3,4-difluoro-2-methoxyphenyl)-4,5-dimethyl-N-(1H-1,2,3-triazol-4-yl)-5-(trifluoromethyl)tetrahydrofuran-2-carboxamide] | 10 to 100 nM | – |
| C[C@H]1[C@@H](c2ccc(F)c(F)c2OCCO)[C@H](C(=O)Nc2ccnnc2)O[C@@]1(C)C(F)(F)F [Compound 576, (2R,3S,4S,5R)-3-[3,4-difluoro-2-(2-hydroxyethoxy)phenyl]-4,5-dimethyl-N-pyridazin-4-yl-5-(trifluoromethyl)tetrahydrofuran-2-carboxamide] | < 10 nM | – |
| COc1c([C@H]2[C@H](C(=O)N[C@@H]3C[C@H]3c3cnn(C)c3)O[C@@](C)(C(F)(F)F)[C@H]2C)ccc(F)c1F (relative stereo) [Compound 266, rel-(2R*,3S*,4S*,5R*)-3-(3,4-difluoro-2-methoxyphenyl)-4,5-dimethyl-N-((1R,2S)-2-(1-methyl-1H-pyrazol-4-yl)cyclopropyl)-5-(trifluoromethyl)tetrahydrofuran-2-carboxamide] | ≥ 1000 nM | – |
| COc1nc(C(F)F)ccc1[C@H]1[C@H](C(=O)Nc2ccc(C(N)=O)nc2)O[C@@](C)(C(F)(F)F)[C@H]1C (stereo in doubt) [Compound 734, rel-5-((2R,3S,4S,5R)-3-(6-(difluoromethyl)-2-methoxypyridin-3-yl)-4,5-dimethyl-5-(trifluoromethyl)tetrahydrofuran-2-carboxamido)picolinamide] | 100 to 1000 nM | – |
| CNc1ccc(NC(=O)[C@@H]2O[C@@](C)(C(F)(F)F)[C@@H](C)[C@H]2c2ccc(F)c(F)c2OC)cn1 [Compound 524, (2R,3S,4S,5R)-3-(3,4-difluoro-2-methoxy-phenyl)-4,5-dimethyl-N-[6-(methylamino)-3-pyridyl]-5-(trifluoromethyl)tetrahydrofuran-2-carboxamide] | 10 to 100 nM | – |
| COc1c([C@H]2[C@H](C(=O)Nc3ccc(-c4cnco4)nc3)O[C@@](C)(C(F)(F)F)[C@H]2C)ccc(F)c1F [Compound 394, (2R,3S,4S,5R)-3-(3,4-difluoro-2-methoxyphenyl)-4,5-dimethyl-N-(6-(oxazol-5-yl)pyridin-3-yl)-5-(trifluoromethyl)-tetrahydrofuran-2-carboxamide] | 100 to 1000 nM | – |
| COc1c([C@H]2[C@H](C(=O)Nc3ccnc(C(CO)N(C)C)c3)O[C@@](C)(C(F)(F)F)[C@H]2C)ccc(F)c1F (single isomer, unassigned) [Compound 230, rel-(2R*,3S*,4S*,5R*)-3-(3,4-difluoro-2-methoxyphenyl)-N-(2-(-1-(dimethylamino)-2-hydroxyethyl)pyridin-4-yl)-4,5-dimethyl-5-(trifluoromethyl)tetrahydrofuran-2-carboxamide] | < 10 nM | – |
| COc1c([C@H]2[C@H](C(=O)Nc3ccc4ncn(C)c4c3)O[C@@](C)(C(F)(F)F)[C@H]2C)ccc(F)c1F [Compound 185, (2R,3S,4S,5R)-3-(3,4-difluoro-2-methoxyphenyl)-4,5-dimethyl-N-(1-methyl-1H-benzo[d]imidazol-6-yl)-5-(trifluoromethyl)tetrahydrofuran-2-carboxamide] | – | ≥ 1000 nM |
| COCC(NC(C)C)c1ccc(NC(=O)[C@@H]2O[C@@](C)(C(F)(F)F)[C@@H](C)[C@H]2c2ccc(F)c(F)c2OC)cn1 (single isomer, unassigned) [Compound 421, rel-(2R*,3S*,4S*,5R*)-3-(3,4-difluoro-2-methoxyphenyl)-N-(6-(1-(isopropylamino)-2-methoxyethyl)pyridin-3-yl)-4,5-dimethyl-5-(trifluoromethyl)-tetrahydrofuran-2-carboxamide] | 100 to 1000 nM | – |

More lines, now with the values ahead:

| IC50 [1] | IC50 [2] | Structure (SMILES) |
| --- | --- | --- |
| 10 to 100 nM | – | COc1c([C@H]2[C@H](C(=O)Nc3ccnc(N4C(=O)[C@@H]5C[C@H]4CN5C)c3)O[C@@](C)(C(F)(F)F)[C@H]2C)ccc(F)c1F [Compound 489, (2R,3S,4S,5R)-3-(3,4-difluoro-2-methoxyphenyl)-4,5-dimethyl-N-(2-((1S,4S)-5-methyl-3-oxo-2,5-diazabicyclo[2.2.1]heptan-2-yl)pyridin-4-yl)-5-(trifluoromethyl)tetrahydrofuran-2-carboxamide] |
| – | ≥ 1000 nM | COc1c([C@H]2[C@@H](C)[C@@H](C)O[C@@H]2C(=O)Nc2ccnc(C(O)CO)c2)ccc(F)c1F (relative stereo) [Compound 719, rel-(2S,3R,4R,5R)-3-(3,4-difluoro-2-methoxyphenyl)-N-(2-(1,2-dihydroxyethyl)pyridin-4-yl)-4,5-dimethyltetrahydrofuran-2-carboxamide] |
| < 10 nM | – | CN=S(C)(=O)c1cc(NC(=O)C2OC(C)(C(F)(F)F)C(C)C2c2ccc(F)c(F)c2OC)ccn1 (single isomer, unassigned) [Compound 530, 3-(3,4-difluoro-2-methoxy-phenyl)-N-[2-(N,S-dimethylsulfonimidoyl)-4-pyridyl]-4,5-dimethyl-5-(trifluoromethyl)tetrahydrofuran-2-carboxamide] |
| – | ≥ 1000 nM | C[C@@H]1[C@H](c2ccc(F)c(F)c2OC(F)F)[C@@H](C(=O)Nc2ccnc(CCO)c2)O[C@]1(C)C(F)(F)F (single isomer, unassigned) [Compound 457] |
| < 10 nM | – | COCC(C)(N)c1cc(NC(=O)[C@@H]2O[C@@](C)(C(F)(F)F)[C@@H](C)[C@H]2c2ccc(F)c(F)c2OC)ccn1 (single isomer, unassigned) [Compound 352, rel-(2R*,3S*,4S*,5R*)-N-(2-(2-amino-1-methoxypropan-2-yl)pyridin-4-yl)-3-(3,4-difluoro-2-methoxyphenyl)-4,5-dimethyl-5-(trifluoromethyl)-tetrahydrofuran-2-carboxamide] |
| 10 to 100 nM | – | Cc1nn(C(F)F)cc1NC(=O)[C@@H]1O[C@@](C)(C(F)(F)F)[C@@H](C)[C@H]1c1ccc(F)c(F)c1CN(C)C1CCOCC1 [Compound 669, (2R,3S,4S,5R)-3-(3,4-difluoro-2-((methyl(tetrahydro-2H-pyran-4-yl)amino)methyl)phenyl)-N-(1-(difluoromethyl)-3-methyl-1H-pyrazol-4-yl)-4,5-dimethyl-5-(trifluoromethyl)tetrahydrofuran-2-carboxamide] |
